Results: US20240018157A1, “CYCLIC COMPOUNDS AND METHODS OF USING SAME” (Schrödinger, Inc., priority 2019, published 2024)

biological target: full-length MALT1 protein His-MALT1(1-824) (Homo sapiens (Human), UniProt Q9UDY8); assay: MALT1 protease assay, Assay 2 (1 nM MALT1, Ac-LRSR-AMC substrate); type: biochemical; conditions: 1 nM MALT1, 50 μM Ac-LRSR-AMC, 2 h pre-incubation, 8 hr incubation at RT
Procedure: MALT1 protease activity was assessed in an in vitro assay using a tetrapeptide as substrate and full-length MALT1 protein His-MALT1(1-824) purified from baculovirus-infected insect cells.
The final assay buffer includes 1 nM (Assay 2) or 2 nM (Assay 1) of MALT1 full-length protein, 50 μM Ac-LRSR-AMC substrate, 50 mM Tris pH 7.5, 600 mM Sodium Citrate, 1 mM DTT, 1 mM EDTA, and 0.05% BSA in 384-well plate format using black microtiter square well plates (Optiplate 384-F, Perkin Elmer).
Test compounds were dissolved in 100% DMSO at stock of 10 mM, with final DMSO concentration 0.1%. Test compounds were pre-incubated with MALT1 protein for 2 h at room temperature. Substrate was added after the pre-incubation and fluorescence signal was measured using Envision at excitation 355 nm and emission 460 nm after 8 hr incubation at RT.
The fluorescence units were transformed to percentage of remaining activity by using the high control (HC, median of fluorescence signal from wells containing MALT1 protein, substrate, and DMSO) and low control (LC, median of fluorescence signal from wells with substrate only) with the formula below: […]
IC50 and Hill coefficient were obtained using Graph Pad Prism (Graph Pad software, Inc, USA) with non-linear regression analysis.

Sequence of full-length MALT1 protein His-MALT1(1-824) (Q9UDY8 whole entry): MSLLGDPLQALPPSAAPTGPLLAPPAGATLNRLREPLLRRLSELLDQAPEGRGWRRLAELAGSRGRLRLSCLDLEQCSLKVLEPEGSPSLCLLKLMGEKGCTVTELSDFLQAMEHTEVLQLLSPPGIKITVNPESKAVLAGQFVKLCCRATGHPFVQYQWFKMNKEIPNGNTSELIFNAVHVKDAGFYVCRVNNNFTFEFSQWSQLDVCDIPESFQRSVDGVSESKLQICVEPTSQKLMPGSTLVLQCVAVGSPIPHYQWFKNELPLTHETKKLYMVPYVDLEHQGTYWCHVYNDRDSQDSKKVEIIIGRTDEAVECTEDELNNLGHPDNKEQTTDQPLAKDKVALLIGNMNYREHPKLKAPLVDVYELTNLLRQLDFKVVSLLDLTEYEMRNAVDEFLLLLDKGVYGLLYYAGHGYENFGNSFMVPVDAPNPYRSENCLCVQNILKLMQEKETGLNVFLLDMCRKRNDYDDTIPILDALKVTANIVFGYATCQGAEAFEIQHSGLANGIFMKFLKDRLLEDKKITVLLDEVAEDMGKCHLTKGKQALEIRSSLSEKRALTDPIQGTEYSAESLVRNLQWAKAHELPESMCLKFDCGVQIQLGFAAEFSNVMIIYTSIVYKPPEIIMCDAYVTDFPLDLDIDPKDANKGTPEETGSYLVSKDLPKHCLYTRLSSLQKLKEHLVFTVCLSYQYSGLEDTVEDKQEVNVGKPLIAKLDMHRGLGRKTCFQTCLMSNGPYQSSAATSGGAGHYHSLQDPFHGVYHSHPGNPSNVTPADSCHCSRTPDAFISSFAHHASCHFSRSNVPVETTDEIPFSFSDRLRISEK

Row | IC50 | Compound
1 | 100 to 1000 nM | COc1nc(OC2CN(C)C2)c(NC(=O)N2C[C@@](C)(C(F)(F)F)c3c2cnc2cc(Cl)nn32)cc1Cl [compound 81, (R)-2-chloro-N-(5-chloro-6-methoxy-2-((1-methylazetidin-3-yl)oxy)pyridin-3-yl)-8-methyl-8-(trifluoromethyl)-7,8-dihydro-6H-pyrazolo[1,5-a]pyrrolo[2,3-e]pyrimidine-6-carboxamide]
2 | 10 to 100 nM | Cc1cn2ccc3c(c2n1)C(C)(C(F)(F)F)CN3C(=O)Nc1cnc(-n2nccn2)c(Cl)c1 (stereo not shown) [compound 193, N-(5-chloro-6(2H-1,2,3-triazol-2-yl)pyridin-3-yl)-2,9-dimethyl-9-(trifluoromethyl)-8,9-dihydro-7H-imidazo[1,2-a]pyrrolo[3,2-c]pyridine-7-carboxamide]
3 | 10 to 100 nM | CN1CC(Oc2cc(NC(=O)N3C[C@@](C)(C(F)(F)F)c4c3cnc3cc(Cl)nn43)cc(C(F)(F)F)n2)C1 [compound 121, (R)-2-chloro-8-methyl-N-(2-((1-methylazetidin-3-yl)oxy)-6-(trifluoromethyl)pyridin-4-yl)-8-(trifluoromethyl)-7,8-dihydro-6H-pyrazolo[1,5-a]pyrrolo[2,3-e]pyrimidine-6-carboxamide]
4 | 100 to 1000 nM | CC(C)(O)c1cnn(-c2ncc(NC(=O)N3C[C@@](C)(C(F)(F)F)c4c3cnc3cc(Cl)nn43)cc2Cl)n1 [compound 180, (R)-2-chloro-N-(5-chloro-6-(4-(2-hydroxypropan-2-yl)-2H-1,2,3-triazol-2-yl)pyridine-3-yl)-8-methyl-8-(trifluoromethyl)-7,8-dihydro-6H-pyrazolo[1,5-a]pyrrolo[2,3-e]pyrimidine-6-carboxamide]
5 | 100 to 1000 nM | C[C@@]1(C(F)(F)F)CN(C(=O)Nc2cc(C(F)F)nnc2C#N)c2cnc3cc(Cl)nn3c21 [compound 143, (R)-2-chloro-N-(3-cyano-6-(difluoromethyl)pyridazin-4-yl)-8-methyl-8-(trifluoromethyl)-7,8-dihydro-6H-pyrazolo[1,5-a]pyrrolo[2,3-e]pyrimidine-6-carboxamide]
6 | 10 to 100 nM | CC(C)(O)Cn1ccc(-c2ncc(NC(=O)N3C[C@@](C)(C(F)(F)F)c4c3cnc3cc(F)nn43)cc2C(F)F)n1 [compound 162, (R)-N-(5-(difluoromethyl)-6-(1-(2-hydroxy-2-methylpropyl)-1H-pyrazol-3-yl)pyridin-3-yl)-2-fluoro-8-methyl-8-(trifluoromethyl)-7,8-dihydro-6H-pyrazolo[1,5-a]pyrrolo[2,3-e]pyrimidine-6-carboxamide]
7 | 10 to 100 nM | C[C@@]1(C(F)(F)F)CN(C(=O)Nc2cc(C(F)F)n[nH]2)c2cnc3cc(Cl)nn3c21 [compound 107, (R)-2-chloro-N-(3-(difluoromethyl)-1H-pyrazol-5-yl)-8-methyl-8-(trifluoromethyl)-7,8-dihydro-6H-pyrazolo[1,5-a]pyrrolo[2,3-e]pyrimidine-6-carboxamide]
8 | 100 to 1000 nM | C[C@@H](N)COc1cc(NC(=O)N2C[C@@](C)(C(F)(F)F)c3c2cnc2cc(Cl)nn32)cn(C(F)F)c1=O [compound 109, (R)-N-(5-((R)-2-aminopropoxy)-1-(difluoromethyl)-6-oxo-1,6-dihydropyridin-3-yl)-2-chloro-8-methyl-8-(trifluoromethyl)-7,8-dihydro-6H-pyrazolo[1,5-a]pyrrolo[2,3-e]pyrimidine-6-carboxamide]
9 | 100 to 1000 nM | CC(O)c1cc2ncc3c(n2n1)C(C)(C(F)(F)F)CN3C(=O)Nc1cnc(-n2nccn2)c(Cl)c1 (stereo not shown) [compound 80, N-(5-chloro-6-(2H-1,2,3-triazol-2-yl)pyridin-3-yl)-2-(1-hydroxyethyl)-8-methyl-8-(trifluoromethyl)-7,8-dihydro-6H-pyrazolo[1,5-a]pyrrolo[2,3-e]pyrimidine-6-carboxamide]
10 | 100 to 1000 nM | C[C@@]1(C(F)(F)F)CN(C(=O)Nc2cc(C(F)F)nnc2C(N)=O)c2cnc3cc(Cl)nn3c21 [compound 148, (R)-N-(3-carbamoyl-6-(difluoromethyl)pyridazin-4-yl)-2-chloro-8-methyl-8-(trifluoromethyl)-7,8-dihydro-6H-pyrazolo[1,5-a]pyrrolo[2,3-e]pyrimidine-6-carboxamide]
11 | 100 to 1000 nM | CC(C)(O)c1cc(NC(=O)N2C[C@@](C)(C(F)(F)F)c3c2cnc2cc(Cl)nn32)cc(C(F)(F)F)n1 [compound 78, (R)-2-chloro-N-(2-(2-hydroxypropan-2-yl)-6-(trifluoromethyl)pyridin-4-yl)-8-methyl-8-(trifluoromethyl)-7,8-dihydro-6H-pyrazolo[1,5-a]pyrrolo[2,3-e]pyrimidine-6-carboxamide]
12 | 10 to 100 nM | CC1(C)CN=C(c2ncc(NC(=O)N3C[C@@](C)(C(F)(F)F)c4c3cnc3cc(Cl)nn43)cc2Cl)O1 [compound 118]
13 | 100 to 1000 nM | CNc1nnc(C(F)(F)F)cc1NC(=O)N1C[C@@](C)(C(F)(F)F)c2c1cnc1cc(Cl)nn21 [compound 112, (R)-2-chloro-8-methyl-N-(3-(methylamino)-6-(trifluoromethyl)pyridazin-4-yl)-8-(trifluoromethyl)-7,8-dihydro-6H-pyrazolo[1,5-a]pyrrolo[2,3-e]pyrimidine-6-carboxamide]
14 | 100 to 1000 nM | C[C@@]1(C(F)(F)F)CN(C(=O)Nc2ccnc(C(F)(F)F)c2F)c2cnc3cc(Cl)nn3c21 [compound 100, (R)-2-chloro-N-(3-fluoro-2-(trifluoromethyl)pyridin-4-yl)-8-methyl-8-(trifluoromethyl)-7,8-dihydro-6H-pyrazolo[1,5-a]pyrrolo[2,3-e]pyrimidine-6-carboxamide]
15 | 10 to 100 nM | C[C@@]1(C(F)(F)F)CN(C(=O)Nc2cc(C(F)(F)F)n[nH]2)c2cnc3cc(Cl)nn3c21 [compound 131, (R)-2-chloro-8-methyl-8-(trifluoromethyl)-N-(3-(trifluoromethyl)-1H-pyrazol-5-yl)-7,8-dihydro-6H-pyrazolo[1,5-a]pyrrolo[2,3-e]pyrimidine-6-carboxamide]
16 | 100 to 1000 nM | C[C@@]1(C(F)(F)F)CN(C(=O)NC2CCC3(CC2)CC3)c2cnc3cc(Cl)nn3c21 [compound 172, (R)-2-chloro-8-methyl-N-(spiro[2.5]octan-6-yl)-8-(trifluoromethyl)-7,8-dihydro-6H-pyrazolo[1,5-a]pyrrolo[2,3-e]pyrimidine-6-carboxamide]
17 | 10 to 100 nM | C[C@@]1(C(F)(F)F)CN(C(=O)Nc2cc(C(F)F)ncn2)c2cnc3cc(Cl)nn3c21 [compound 106, (R)-2-chloro-N-(6-(difluoromethyl)pyrimidin-4-yl)-8-methyl-8-(trifluoromethyl)-7,8-dihydro-6H-pyrazolo[1,5-a]pyrrolo[2,3-e]pyrimidine-6-carboxamide]
18 | 100 to 1000 nM | CN(C)c1cc(NC(=O)N2C[C@@](C)(C(F)(F)F)c3c2cnc2cc(Cl)nn32)cnn1 [compound 101, (R)-2-chloro-N-(6-(dimethylamino)pyridazin-4-yl)-8-methyl-8-(trifluoromethyl)-7,8-dihydro-6H-pyrazolo[1,5-a]pyrrolo[2,3-e]pyrimidine-6-carboxamide]
19 | 10 to 100 nM | Cc1cc(NC(=O)N2C[C@@](C)(C(F)(F)F)c3c2cnc2cc(Cl)nn32)cc(OC[C@H](C)N)n1 [compound 58, (R)-N-(2-((S)-2-aminopropoxy)-6-methylpyridin-4-yl)-2-chloro-8-methyl-8-(trifluoromethyl)-7,8-dihydro-6H-pyrazolo[1,5-a]pyrrolo[2,3-e]pyrimidine-6-carboxamide]
